Measurements taken from patent US20100298141A1, “SUBSTITUTED PYRIDINE N-OXIDE HERBICIDES” (E. I. DU PONT DE NEMOURS AND COMPANY, priority 2007, published 2010).

Key:
barnyardgrass [1] = experiment: Test A pre-/postemergence greenhouse test; type: in vivo, Echinochloa crus-galli; details: for Plant response rating, Barnyardgrass: 0 to 100 scale where 0 is no effect and 100 is complete control; for Barnyardgrass plant response rating: 0 to 100 scale
Summary of the method: (§1)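 Untreated controls served as the reference for visual injury ratings taken about ten days after spraying. The non-phytotoxic solvent/surfactant formulation was applied preemergence to seeded loam and sand and postemergence to plants two to ten cm high.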

crabgrass = experiment: Test A pre-/postemergence greenhouse test; type: in vivo, Digitaria sanguinalis; details: for Plant response rating, Crabgrass, Large: 0 to 100 scale where 0 is no effect and 100 is complete control; for Crabgrass, Large plant response rating: 0 to 100 scale
Summary of the method: as §1

giant foxtail = experiment: Test A pre-/postemergence greenhouse test; type: in vivo, Setaria faberi; details: for Plant response rating, Foxtail, Giant: 0 to 100 scale where 0 is no effect and 100 is complete control; for Foxtail, Giant plant response rating: 0 to 100 scale
Summary of the method: as §1

velvetleaf [2] = experiment: Test A pre-/postemergence greenhouse test; type: in vivo, Abutilon theophrasti; details: for Plant response rating, Velvetleaf: 0 to 100 scale where 0 is no effect and 100 is complete control; for Velvetleaf plant response rating: 0 to 100 scale
Summary of the method: as §1

blackgrass = experiment: Test C pre-/postemergence test; type: in vivo, Alopecurus myosuroides
Summary of the method: (§2)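 Test chemicals were formulated with surfactant in a non-phytotoxic solvent and sprayed both on freshly planted seeds (preemergence) and on 1- to 4-leaf plants of 2–18 cm (postemergence). Flooded-paddy pots received compound directly into 3 cm of standing water, maintained for the test.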

downy brome = experiment: Test C pre-/postemergence test; type: in vivo, Bromus tectorum
Summary of the method: as §2

green foxtail = experiment: Test C pre-/postemergence test; type: in vivo, Setaria viridis
Summary of the method: as §2

Surinam grass = experiment: Test C pre-/postemergence test; type: in vivo, Brachiaria decumbens
Summary of the method: as §2

woolly cupgrass = experiment: Test C pre-/postemergence test; type: in vivo, Eriochloa villosa
Summary of the method: as §2

lambsquarters = experiment: Test C pre-/postemergence test; type: in vivo, Chenopodium album; details: Postemergence; for Plant response rating, Lambsquarters: scale 0 to 100, 0 no effect, 100 complete control
Summary of the method: as §2

pigweed = experiment: Test C pre-/postemergence test; type: in vivo, Amaranthus retroflexus
Summary of the method: as §2

common ragweed = experiment: Test C pre-/postemergence test; type: in vivo, Ambrosia elation; details: for Plant response rating (0 to 100), Ragweed / Plant response rating, Ragweed: Postemergence; for Plant response rating, Ragweed: scale 0 to 100, 0 no effect, 100 complete control
Summary of the method: as §2

soybean = experiment: Test C pre-/postemergence test; type: in vivo, Glycine max
Summary of the method: as §2

velvetleaf [3] = experiment: Test C pre-/postemergence test; type: in vivo, Abutilon theophrasti
Summary of the method: as §2

duck salad = experiment: Test C flooded paddy test; type: in vivo, Heteranthera limosa; details: Flood
Summary of the method: (§3)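 Greenhouse pots flooded to 3 cm above soil at time of treatment received compound via the water, which stayed at that level.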

barnyardgrass [4] = experiment: Test C flooded paddy test; type: in vivo, Echinochloa crus-galli; details: Flood
Summary of the method: as §3

[5] = Postemergence, 500 g ai/ha, 0 is no effect, 100 is complete control
[6] = Preemergence, 125 g ai/ha, 0 no effect, 100 complete control
[7] = 62 g ai/ha, Preemergence, scale 0 to 100
[8] = 125 g ai/ha, preemergence, scale 0 (no effect) to 100 (complete control)
[9] = Postemergence, 62 g ai/ha, scale 0 to 100, 0 no effect, 100 complete control
[10] = Postemergence, 125 g ai/ha, scale 0 to 100, 0 no effect, 100 complete control
[11] = Preemergence, 31 g ai/ha, scale 0 to 100 (0 no effect, 100 complete control)
[12] = preemergence, 250 g ai/ha, scale 0 (no effect) to 100 (complete control)
[13] = Postemergence, 250 g ai/ha, scale 0 to 100, 0 no effect, 100 complete control
[14] = 62 g ai/ha, scale 0 to 100 (0 no effect, 100 complete control)
[15] = 250 g ai/ha, scale 0 to 100, 0 no effect, 100 complete control, 13 to 15 days

CCn1nc(C(F)(F)F)c(CS(=O)(=O)c2cc(C)cc[n+]2[O-])c1OCC(F)(F)F [Compound 64]
Plant response rating, Barnyardgrass (barnyardgrass [1]; Postemergence, 125 g ai/ha): 90
Barnyardgrass plant response rating (barnyardgrass [1]; [5]): 90
Barnyardgrass plant response rating (barnyardgrass [1]; [6]): 70
Plant response rating, Barnyardgrass (barnyardgrass [1]; Preemergence, 500 g ai/ha): 100
Plant response rating, Crabgrass, Large (crabgrass; Postemergence, 125 g ai/ha): 80
Crabgrass, Large plant response rating (crabgrass; [5]): 90
Crabgrass, Large plant response rating (crabgrass; [6]): 80
Plant response rating, Crabgrass, Large (crabgrass; Preemergence, 500 g ai/ha): 100
Plant response rating, Foxtail, Giant (giant foxtail; Postemergence, 125 g ai/ha): 80
Foxtail, Giant plant response rating (giant foxtail; [5]): 90
Foxtail, Giant plant response rating (giant foxtail; [6]): 100
Plant response rating, Foxtail, Giant (giant foxtail; Preemergence, 500 g ai/ha): 100
Plant response rating, Velvetleaf (velvetleaf [2]; Postemergence, 125 g ai/ha): 60
Velvetleaf plant response rating (velvetleaf [2]; [5]): 70
Velvetleaf plant response rating (velvetleaf [2]; [6]): 50
Plant response rating, Velvetleaf (velvetleaf [2]; Preemergence, 500 g ai/ha): 100
Blackgrass plant response rating (blackgrass; [7]): 90
Blackgrass plant response rating (blackgrass; [8]): 100
Plant response rating (0 to 100), Blackgrass (blackgrass; Postemergence, 31 g ai/ha): 20
Plant response rating, Blackgrass (blackgrass; [9]): 60
Plant response rating, Blackgrass (blackgrass; [10]): 60
Plant response rating, Blackgrass (blackgrass; [11]): 90
Blackgrass plant response rating (blackgrass; [12]): 100
Bromegrass, Downy plant response rating (downy brome; [7]): 30
Bromegrass, Downy plant response rating (downy brome; [8]): 85
Plant response rating (0 to 100), Bromegrass, Downy (downy brome; Postemergence, 31 g ai/ha): 0
Plant response rating, Bromegrass, Downy (downy brome; [9]): 0
Plant response rating, Bromegrass, Downy (downy brome; [10]): 10
Plant response rating, Bromegrass, Downy (downy brome; [13]): 20
Plant response rating, Bromegrass, Downy (downy brome; [11]): 30
Bromegrass, Downy plant response rating (downy brome; [12]): 100
Foxtail, Green plant response rating (green foxtail; [7]): 100
Foxtail, Green plant response rating (green foxtail; [8]): 100
Plant response rating (0 to 100), Foxtail, Green (green foxtail; Postemergence, 31 g ai/ha): 0
Plant response rating, Foxtail, Green (green foxtail; [9]): 0
Plant response rating, Foxtail, Green (green foxtail; [10]): 50
Plant response rating, Foxtail, Green (green foxtail; [13]): 80
Plant response rating, Foxtail, Green (green foxtail; [11]): 75
Foxtail, Green plant response rating (green foxtail; [12]): 100
Surinam Grass plant response rating (Surinam grass; [7]): 100
Surinam Grass plant response rating (Surinam grass; [8]): 100
Plant response rating (0 to 100), Surinam Grass (Surinam grass; Postemergence, 31 g ai/ha): 0
Plant response rating (0 to 100), Surinam Grass (Surinam grass; Postemergence, 62 g ai/ha): 0
Plant response rating, Surinam Grass (Surinam grass; [10]): 0
Plant response rating, Surinam Grass (Surinam grass; [13]): 40
Plant response rating, Surinam Grass (Surinam grass; [11]): 95
Surinam Grass plant response rating (Surinam grass; [12]): 100
Cupgrass, Woolly plant response rating (woolly cupgrass; [7]): 100
Cupgrass, Woolly plant response rating (woolly cupgrass; [8]): 100
Plant response rating (0 to 100), Cupgrass, Woolly (woolly cupgrass; Postemergence, 31 g ai/ha): 0
Plant response rating, Cupgrass, Woolly (woolly cupgrass; [9]): 0
Plant response rating, Cupgrass, Woolly (woolly cupgrass; [10]): 0
Plant response rating, Cupgrass, Woolly (woolly cupgrass; [13]): 50
Plant response rating, Cupgrass, Woolly (woolly cupgrass; [11]): 60
Cupgrass, Woolly plant response rating (woolly cupgrass; [12]): 100
Plant response rating (0 to 100), Lambsquarters (lambsquarters; 31 g ai/ha): 0
Plant response rating, Lambsquarters (lambsquarters; 62 g ai/ha): 0
Plant response rating, Lambsquarters (lambsquarters; 125 g ai/ha): 0
Plant response rating, Lambsquarters (lambsquarters; 250 g ai/ha): 0
Pigweed plant response rating (pigweed; [7]): 95
Pigweed plant response rating (pigweed; [8]): 100
Plant response rating (0 to 100), Pigweed (pigweed; Postemergence, 31 g ai/ha): 0
Plant response rating (0 to 100), Pigweed (pigweed; Postemergence, 62 g ai/ha): 0
Plant response rating, Pigweed (pigweed; [10]): 0
Plant response rating, Pigweed (pigweed; [13]): 5
Plant response rating, Pigweed (pigweed; [11]): 95
Pigweed plant response rating (pigweed; [12]): 100
Ragweed plant response rating (common ragweed; [7]): 85
Ragweed plant response rating (common ragweed; [8]): 100
Plant response rating (0 to 100), Ragweed (common ragweed; 31 g ai/ha): 0
Plant response rating (0 to 100), Ragweed (common ragweed; 62 g ai/ha): 0
Plant response rating, Ragweed (common ragweed; 125 g ai/ha): 0
Plant response rating, Ragweed (common ragweed; 250 g ai/ha): 0
Ragweed plant response rating (common ragweed; [12]): 100
Soybean plant response rating (soybean; [7]): 20
Soybean plant response rating (soybean; [8]): 70
Plant response rating (0 to 100), Soybean (soybean; Postemergence, 31 g ai/ha): 25
Plant response rating (0 to 100), Soybean (soybean; Postemergence, 62 g ai/ha): 25
Plant response rating, Soybean (soybean; [10]): 30
Plant response rating, Soybean (soybean; [13]): 35
Plant response rating, Soybean (soybean; [11]): 0
Soybean plant response rating (soybean; [12]): 80
Velvetleaf plant response rating (velvetleaf [3]; [7]): 100
Velvetleaf plant response rating (velvetleaf [3]; [8]): 100
Plant response rating (0 to 100), Velvetleaf (velvetleaf [3]; Postemergence, 31 g ai/ha): 0
Plant response rating (0 to 100), Velvetleaf (velvetleaf [3]; Postemergence, 62 g ai/ha): 0
Plant response rating, Velvetleaf (velvetleaf [3]; [10]): 0
Plant response rating, Velvetleaf (velvetleaf [3]; [13]): 40
Plant response rating, Velvetleaf (velvetleaf [3]; [11]): 45
Velvetleaf plant response rating (velvetleaf [3]; [12]): 100
Plant response rating, Ducksalad (duck salad; [14]): 20
Plant response rating, Ducksalad (duck salad; [15]): 75
Plant response rating, Barnyardgrass (barnyardgrass [4]; [14]): 0
Plant response rating, Barnyardgrass (barnyardgrass [4]; [15]): 20
